According to EP1561465A2, “Methods of use of fluoroquinolone compounds against bacteria” (LG Life Sciences, Ltd., priority 1999, dated 2001):
≈ marks a conversion by molar mass, not a printed value. Where two headings read alike, the source gives them in different places.

What was measured:
[1] = test system: Staphylococcus aureus; assay: MIC by NCCLS reference broth microdilution, 450 respiratory tract pathogens; assay type: cell-based
[2] = test system: Enterococcus faecalis; assay: MIC by agar dilution (NCCLS), 411 isolates Buenos Aires 1998-99; assay type: cell-based; details: Enterococcus faecalis (n = 48)
[3] = test system: Campylobacter jejuni; assay: MIC by agar dilution (NCCLS M7-A4), 288 enteropathogenic isolates, gemifloxacin and 15 other antimicrobials; details: for MIC: Campylobacter jejuni
[4] = test system: Enterococcus faecalis; assay: MIC by NCCLS broth microdilution, 1100 Japanese clinical isolates 1997-1998; assay type: cell-based; details: for MIC50 / MIC90: Enterococcus faecalis; for MIC90: read-out: MIC90
[5] = test system: Morganella morganii; assay: as above; assay type: cell-based
[6] = test system: Shigella spp.; assay: as above; assay type: cell-based; details: Shigella spp. (n=34)
[7] = test system: Mycobacterium tuberculosis (MTB); assay: MIC by proportions method (NCCLS M24-T, 1995), 82 MTB strains; assay type: cell-based; details: Mycobacterium tuberculosis; 82 MTB strains
[8] = test system: Streptococcus pneumoniae; assay: MIC by NCCLS broth microdilution, 1100 Japanese clinical isolates 1997-1998; assay type: cell-based; details: for MIC50 / MIC90 / MIC: Streptococcus pneumoniae; for MIC50: read-out: MIC50; for MIC90: read-out: MIC90; for MIC: Streptococcus pneumoniae quinolone resistant
[9] = test system: Salmonella spp.; assay: MIC by agar dilution (NCCLS M7-A4), 288 enteropathogenic isolates, gemifloxacin and 15 other antimicrobials; assay type: cell-based
[10] = test system: Shigella spp.; assay: MIC by agar dilution (NCCLS M7-A4), 288 enteropathogenic isolates, eight quinolones; assay type: cell-based; details: Shigella spp. (n = 21)
[11] = test system: Escherichia coli; assay: MIC by NCCLS broth microdilution, 1100 Japanese clinical isolates 1997-1998; assay type: cell-based; details: for MIC50 / MIC90: Escherichia coli
[12] = test system: P. aeruginosa; assay: MIC by two-fold serial agar dilution, quinolone-resistant strains; assay type: cell-based; details: Pseudomonas aeruginosa
[13] = test system: Haemophilus influenzae; assay: MIC by agar dilution (NCCLS), 411 isolates Buenos Aires 1998-99; assay type: cell-based; details: Haemophilus influenzae (n = 65)
[14] = test system: Moraxella catarrhalis; assay: MIC by NCCLS reference broth microdilution, 450 respiratory tract pathogens; assay type: cell-based
[15] = test system: Staphylococcus aureus; assay: MIC by NCCLS broth microdilution, 1100 Japanese clinical isolates 1997-1998; assay type: cell-based; details: for MIC: Staphylococcus aureus quinolone resistant, read-out: MIC
[16] = test system: Moraxella catarrhalis; assay: MIC by two-fold serial agar dilution, Sensitivity Disk agar-N (Kitasato isolates); assay type: cell-based; details: Moraxella catarrhalis (22)
[17] = β-lactamase positive and erythromycin resistant (n = 10)
[18] = Enterococcus faecalis ciprofloxacin resistant (n=15)
[19] = Enterococcus faecalis ciprofloxacin susceptible (n=24)
[20] = Streptococcus pneumoniae amoxicillin resistant (n=40)
[21] = Streptococcus pneumoniae amoxicillin susceptible (n=35)
[22] = Streptococcus pneumoniae erythromycin resistant (n=34)
[23] = Streptococcus pneumoniae erythromycin susceptible (n=11)
[24] = Escherichia coli ciprofloxacin resistant (n=5)
[25] = Escherichia coli ciprofloxacin susceptible (n=37)
[26] = Staphylococcus aureus, Staphylococcus aureus oxacillin resistant (n=57)

SMILES: C[C@H]1COc2c(N3CCN(C)CC3)c(F)cc3c(=O)c(C(=O)O)cn1c23 [Levofloxacin, levofloxacin]
- MIC ([1]; Staphylococcus aureus (n = 50)): 0.03 to 2 µg/mL (≈ 0.083 to 5.53 µM)
- MIC50 ([1]; Staphylococcus aureus (n = 50)): 1 µg/mL (≈ 2.77 µM)
- MIC90 ([1]; Staphylococcus aureus (n = 50)): 2 µg/mL (≈ 5.53 µM)
- MIC ([1]; β-lactamase negative (n = 20)): 0.03 to 2 µg/mL (≈ 0.083 to 5.53 µM)
- MIC50 ([1]; β-lactamase negative (n = 20)): 2 µg/mL (≈ 5.53 µM)
- MIC90 ([1]; β-lactamase negative (n = 20)): 2 µg/mL (≈ 5.53 µM)
- MIC ([1]; β-lactamase positive (n = 20)): 1 to 2 µg/mL (≈ 2.77 to 5.53 µM)
- MIC50 ([1]; β-lactamase positive (n = 20)): 1 µg/mL (≈ 2.77 µM)
- MIC90 ([1]; β-lactamase positive (n = 20)): 2 µg/mL (≈ 5.53 µM)
- MIC50 [1, 17]: 1 µg/mL (≈ 2.77 µM)
- MIC90 [1, 17]: 2 µg/mL (≈ 5.53 µM)
- MIC90 [2]: > 32 µg/mL
- MIC (mg/L) Range ([3]; Campylobacter jejuni N= 91): 0.06 to 128 mg/L
- MIC ([3]; read-out: MIC (mg/L) 50%): 8 mg/L (≈ 22.1 µM)
- MIC ([3]; read-out: MIC (mg/L) 90%): 32 mg/L (≈ 88.6 µM)
- MIC Range [4, 18]: 2 to 32 µg/mL
- MIC Range [4, 19]: 1 to 2 µg/mL
- MIC50 [4, 18]: 16 µg/mL (≈ 44.3 µM)
- MIC90 [4, 18]: 32 µg/mL (≈ 88.6 µM)
- MIC50 [4, 19]: 1 µg/mL (≈ 2.77 µM)
- MIC90 [4, 19]: 2 µg/mL (≈ 5.53 µM)
- MIC90 ([5]; Morganella morganii): 0.125 µg/mL (≈ 0.346 µM)
- MIC Range ([5]; Morganella morganii (n=40)): 0.016 to 8 µg/mL
- MIC50 ([5]; Morganella morganii (n=40), read-out: MIC50): 0.032 µg/mL (≈ 0.0886 µM)
- MIC50 [6]: 0.016 µg/mL (≈ 0.0443 µM)
- MIC90 [6]: 0.063 µg/mL (≈ 0.174 µM)
- MIC Range [6]: 0.016 to 0.063 µg/mL
- MIC90 [7]: 1 µg/mL (≈ 2.77 µM)
- MIC Range [8, 20]: 0.5 to 8 µg/mL
- MIC Range [8, 21]: 0.063 to 8 µg/mL
- MIC Range [8, 22]: 0.063 to 8 µg/mL
- MIC Range [8, 23]: 0.5 to 1 µg/mL
- MIC50 [8, 20]: 1 µg/mL (≈ 2.77 µM)
- MIC90 [8, 20]: 1 µg/mL (≈ 2.77 µM)
- MIC50 [8, 21]: 1 µg/mL (≈ 2.77 µM)
- MIC90 [8, 21]: 1 µg/mL (≈ 2.77 µM)
- MIC50 [8, 22]: 1 µg/mL (≈ 2.77 µM)
- MIC90 [8, 22]: 1 µg/mL (≈ 2.77 µM)
- MIC50 [8, 23]: 1 µg/mL (≈ 2.77 µM)
- MIC90 [8, 23]: 1 µg/mL (≈ 2.77 µM)
- MIC ([8]; strain TMS1): 1 µg/mL (≈ 2.77 µM)
- MIC ([8]; strain TMS2): 16 µg/mL (≈ 44.3 µM)
- MIC ([9]; S. hadar(2), isolates with MICs for ciprofloxacin ≥[…], read-out: MIC): 1 mg/L (≈ 2.77 µM)
- MIC ([9]; S. newport(1), isolate with MIC for ciprofloxacin ≥[…], read-out: MIC): 1 mg/L (≈ 2.77 µM)
- MIC ([9]; S. virchow(2), isolates with MICs for ciprofloxacin ≥[…], read-out: MIC): 0.25 mg/L (≈ 0.692 µM)
- MIC (mg/L) Range ([9]; Salmonella spp. N= 106): 0.06 to 1 mg/L
- MIC ([9]; Salmonella, S. tshiongwe(1), isolate with MIC for ciprofloxacin ≥[…], read-out: MIC): 1 mg/L (≈ 2.77 µM)
- MIC ([9]; Salmonella, read-out: MIC (mg/L) 50%, Salmonella spp. N= 106): 0.06 mg/L (≈ 0.166 µM)
- MIC ([9]; Salmonella, read-out: MIC (mg/L) 90%, Salmonella spp. N= 106): 0.25 mg/L (≈ 0.692 µM)
- % Susceptible [10]: 100%
- MIC50 [10]: 0.03 µg/mL (≈ 0.083 µM)
- MIC90 [10]: 0.03 µg/mL (≈ 0.083 µM)
- MIC Range [11, 24]: 4 to 128 µg/mL
- MIC Range [11, 25]: ≤0.008 to 0.25 µg/mL
- MIC50 [11, 24]: 16 µg/mL (≈ 44.3 µM)
- MIC90 ([11]; Escherichia coli ciprofloxacin resistant (n=5), values marked *: MIC80 value): 16 µg/mL (≈ 44.3 µM)
- MIC50 [11, 25]: 0.032 µg/mL (≈ 0.0886 µM)
- MIC90 [11, 25]: 0.063 µg/mL (≈ 0.174 µM)
- MIC [12]: 2 µg/mL (≈ 5.53 µM)
- MIC90 [13]: 0.016 µg/mL (≈ 0.0443 µM)
- MIC Range [13]: ≤0.004 to 0.25 µg/mL
- MIC ([14]; Moraxella catarrhalis (n = 50)): 0.00375 to 0.03 µg/mL (≈ 0.0104 to 0.083 µM)
- MIC50 ([14]; Moraxella catarrhalis (n = 50)): 0.015 µg/mL (≈ 0.0415 µM)
- MIC90 ([14]; Moraxella catarrhalis (n = 50)): 0.03 µg/mL (≈ 0.083 µM)
- MIC ([14]; β-lactamase negative (n = 13)): 0.00375 to 0.03 µg/mL (≈ 0.0104 to 0.083 µM)
- MIC50 ([14]; β-lactamase negative (n = 13)): 0.03 µg/mL (≈ 0.083 µM)
- MIC90 ([14]; β-lactamase negative (n = 13)): 0.03 µg/mL (≈ 0.083 µM)
- MIC ([14]; β-lactamase positive (n = 37)): 0.00375 to 0.03 µg/mL (≈ 0.0104 to 0.083 µM)
- MIC50 ([14]; β-lactamase positive (n = 37)): 0.015 µg/mL (≈ 0.0415 µM)
- MIC90 ([14]; β-lactamase positive (n = 37)): 0.03 µg/mL (≈ 0.083 µM)
- MIC Range ([15]; Staphylococcus aureus oxacillin susceptible (n=41)): 0.125 to 1 µg/mL
- MIC50 [15, 26]: 4 µg/mL (≈ 11.1 µM)
- MIC90 [15, 26]: 64 µg/mL (≈ 177 µM)
- MIC50 ([15]; Staphylococcus aureus, Staphylococcus aureus oxacillin susceptible (n=41)): 0.25 µg/mL (≈ 0.692 µM)
- MIC ([15]; Staphylococcus aureus, strain TMS3): > 128 µg/mL
- MIC ([15]; Staphylococcus aureus, strain TMS4): 16 µg/mL (≈ 44.3 µM)
- MIC ([15]; Staphylococcus aureus, strain TMS5): 4 µg/mL (≈ 11.1 µM)
- MIC ([15]; Staphylococcus aureus, strain TMS6): 2 µg/mL (≈ 5.53 µM)
- MIC50 [16]: 0.063 µg/mL (≈ 0.174 µM)
- MIC90 [16]: 0.063 µg/mL (≈ 0.174 µM)
- MIC Range [16]: 0.031 to 0.063 µg/mL
